Where a name gives a salt, the structure may show the parent alone.
assay: not given; conditions: cited from earlier work

Row | SMILES | main hydrolysis product in vivo
1 | CCCCCCOC(=O)NC(=N)c1ccc(NCc2nc3cc(C(=O)N(CCC(=O)OCC)c4ccccn4)ccc3n2C)cc1 [dabigatran etexilate mesylate, reference compound] | a compound of formula (D1), namely dabigatran

assay: Accelerated stability study of dabigatran etexilate mesylate (impurity contents by HPLC method 1); type: physicochemical; conditions: content of the named impurity in dabigatran etexilate mesylate of Example 6 after storage in a double polyethylene bag at 40° C. and 75% relative humidity for 3 months; HPLC method 1; area % with respect to dabigatran etexilate
Method: The chromatographic separation was carried out in a Kromasil 100-5C18, 5 μm, 4.6×250 mm column at 25° C. The mobile phase was prepared by filtering and degassing an acetonitrile/buffer solution (45:55) v/v mixture. The buffer solution was obtained by preparing a 50 mM formic acid solution in water and adjusting the pH to 3.8 with ammonium hydroxide. The chromatograph was equipped with a 254 nm detector and the flow rate was 1.0 mL per minute. 20 μL of the test samples were injected. The samples were prepared by dissolving the appropriate amount of sample in mobile phase, to obtain a concentration of about 1.0 mg/mL. The chromatogram was run for at least 30 min. […] Impurity contents are expressed in area % with respect to dabigatran etexilate.

Row | Compound/Impurity contents (area %) Example 7 [area %] | SMILES
2 | 0.25 | CCCCCCOC(=O)NC(=O)c1ccc(NCc2nc3cc(C(=O)N(CCC(=O)OC)c4ccccn4)ccc3n2C)cc1 [Compound (B2), methyl 3-{[(2-{[(4-{[({hexyloxy}carbonyl)amino]carbonyl}phenyl)amino]methyl}-1-methyl-1H-benzimidazol-5-yl)carbonyl](pyridin-2-yl)amino}propanoate]
3 | 0.18 | CCCCCCOC(=O)/N=C(/N)c1ccc(N)cc1 [Compound (D), 4-{[(hexyloxy)carbonyl]carbamimidoyl}aniline]
4 | 3.8 | CCCCCCOC(=O)NC(=O)c1ccc(NCc2nc3cc(C(=O)N(CCC(=O)O)c4ccccn4)ccc3n2C)cc1 [Compound (B1), 3-{[(2-{[(4-{[({hexyloxy}carbonyl)amino]carbonyl}phenyl)amino]methyl}-1-methyl-1H-benzimidazol-5-yl)carbonyl](pyridin-2-yl)amino}propanoic acid]
5 | 7.62 | CCCCCCOC(=O)NC(=O)c1ccc(NCc2nc3cc(C(=O)N(CCC(=O)OCC)c4ccccn4)ccc3n2C)cc1 [Compound (B3), ethyl 3-{[(2-{[(4-{[({hexyloxy}carbonyl)amino]carbonyl}phenyl)amino]methyl}-1-methyl-1H-benzimidazol-5-yl)carbonyl](pyridin-2-yl)amino}propanoate]
6 | 0.71 | CCCCCCOC(=O)/N=C(/N)c1ccc(NCc2nc3cc(C(=O)N(CCC(N)=O)c4ccccn4)ccc3n2C)cc1 [Compound (B4), 3-{[(2-{[(4-{[(hexyloxy)carbonyl]carbamimidoyl}phenyl)amino]methyl}-1-methyl-1H-benzimidazol-5-yl)carbonyl](pyridin-2-yl)amino}propanamide]
7 | 0.38 | CCOC(=O)c1ccc2c(c1)nc(CNc1ccc(C(=N)N)cc1)n2C [Compound (A1), ethyl 2-{[(4-{carbamimidoyl}phenyl)amino]methyl}-1-methyl-1H-benzimidazol-5-carboxylate]
8 | 0.32 | CCCCCCOC(=O)/N=C(/N)c1ccc(NCc2nc3cc(C(=O)N(CCC(=O)OC)c4ccccn4)ccc3n2C)cc1 [Compound (C3), methyl 3-{[(2-{[(4-{[(hexyloxy)carbonyl]carbamimidoyl}phenyl)amino]methyl}-1-methyl-1H-benzimidazol-5-yl)carbonyl](pyridin-2-yl)amino}propanoate]
9 | 1.57 | CCCCCCOC(=O)/N=C(/N)c1ccc(NCc2nc3cc(C(=O)N(CCC(=O)O)c4ccccn4)ccc3n2C)cc1 [Compound (C2), 3-{[(2-{[(4-{[(hexyloxy)carbonyl]carbamimidoyl}phenyl)amino]methyl}-1-methyl-1H-benzimidazol-5-yl)carbonyl](pyridin-2-yl)amino}propanoic acid]
10 | 0.42 | CCCCCCOC(=O)/N=C(/N)c1ccc(NCc2nc3cc(C(=O)OCC)ccc3n2C)cc1 [Compound (A2), ethyl 2-{[(4-{[(hexyloxy)carbonyl]carbamimidoyl}phenyl)amino]methyl}-1-methyl-1H-benzimidazol-5-carboxylate]
11 | 1.64 | Cn1c(CNc2ccc(C(=N)N)cc2)nc2cc(C(=O)N(CCC(=O)O)c3ccccn3)ccc21 [Compound (C1), 3-{[(2-{[(4-{carbamimidoyl}phenyl)amino]methyl}-1-methyl-1H-benzimidazol-5-yl)carbonyl](pyridin-2-yl)amino}propanoic acid, reference compound]

same assay, conditions: on storage, 40° C. and 75% relative humidity, moisture

Row | SMILES | main hydrolysis product on storage
12 | CCCCCCOC(=O)NC(=N)c1ccc(NCc2nc3cc(C(=O)N(CCC(=O)OCC)c4ccccn4)ccc3n2C)cc1 [dabigatran etexilate mesylate, reference compound] | a compound of formula (B), especially compound (B3)

Source: US9086390B2, “Dabigatran etexilate and related substances, processes and compositions, and use of the substances as reference standards and markers” (Medichem, S.A., priority 2011, dated 2015)
